Several values for one entry are separate records, joined by “and”; a condition that tells them apart may be missing. Identical values can stand only once.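 Cultured in 96-well plates, cells were exposed to test compound for 48 hours across five concentrations. Abbreviation: GI50, concentration required for 50% inhibition of growth. TGI is the concentration that stops growth completely.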
Columns and labels:
Test in all cases: DTP human tumour cell line panel, 48 h
786-0 renal = tested on: 786-0 renal
SNB-19 CNS = tested on: SNB-19 CNS
RPMI-8226 leukemia = tested on: RPMI-8226 leukemia
DMS 273 small cell lung = tested on: DMS 273 small cell lung
SNB-78 CNS = tested on: SNB-78 CNS
SW-620 colon = tested on: SW-620 colon
RXF 393 renal = tested on: RXF 393 renal
OVCAR-5 ovarian = tested on: OVCAR-5 ovarian
NCI/ADR-RES ovarian = tested on: NCI/ADR-RES ovarian
PC-3 prostate = tested on: PC-3 prostate

Structure (SMILES)	TGI (786-0 renal) [µM]	TGI (SNB-19 CNS) [µM]	TGI (RPMI-8226 leukemia) [µM]	TGI (DMS 273 small cell lung) [µM]	TGI (SNB-78 CNS) [µM]	TGI (SW-620 colon) [µM]	TGI (RXF 393 renal) [µM]	TGI (OVCAR-5 ovarian) [µM]	TGI (NCI/ADR-RES ovarian) [µM]	TGI (PC-3 prostate) [µM]	GI50 (786-0 renal)	GI50 (SNB-19 CNS)	GI50 (NCI/ADR-RES ovarian)	GI50 (RPMI-8226 leukemia)	GI50 (PC-3 prostate)	GI50 (SW-620 colon)	GI50 (RXF 393 renal)	GI50 (OVCAR-5 ovarian)
COc1c(Sc2ccccc2)cc(Sc2ccccc2)c2cccnc12	65.9	> 100	50	49.3	> 100	> 100	51.5	> 100	–	–	–	–	–	–	–	–	–	–
CN1C(=O)C2C=CC1C1CCC2N(C)C1=O (stereo not drawn)	> 100	> 100	> 100	> 100	> 100	> 100	> 100	> 100	–	–	–	–	–	–	–	–	–	–
CC1=NOC(=O)C1N=Nc1ccc(Br)c(C)c1 (stereo not drawn)	38.8	92.8	40.7	45.6	62.8	34.7	43.1	72	–	–	–	–	–	–	–	–	–	–
COc1ccc2ccccc2c1CN1CCOCCOCCN(Cc2c(OC)ccc3ccccc23)CCOCCOCC1	> 46.4	> 100	73.2	70.5	> 100	> 94.7	> 100	> 100	–	–	–	–	–	–	–	–	–	–
COC(=O)[C@H]1N[C@@H](C(=O)OC)C23CCC[C@H]2CC[C@]1(C(OC)OC)C3	> 100	> 100	> 100	> 100	> 100	> 100	–	> 100	–	–	–	–	–	–	–	–	–	–
Clc1ccc2c(c1)[nH]c1c2nc2sccn21	> 100	> 100	> 100	> 100	> 100	> 100	> 100	> 100	–	–	–	–	–	–	–	–	–	–
O=C(O)Cc1ccccc1CCc1ccccc1Cl	> 100	> 100	> 100	> 100	> 100	> 100	> 100	> 100	–	–	–	–	–	–	–	–	–	–
CCCCCCCCCCCCCCCCCCNC(=O)OCC(CNS(=O)(=O)CCC[n+]1cccc2ccccc21)COC (stereo not drawn)	> 43.5	6.13	> 100	–	7.92	11.8	55.8	6.09	34.2	4.84	–	–	–	–	–	–	–	–
O=C(CSc1nc(-c2ccccc2)c(-c2ccccc2)[nH]1)NNC(=S)Nc1ccccc1	> 100	> 100	> 100	> 100	> 100	> 100	–	> 100	–	–	–	–	–	–	–	–	–	–
Clc1ccc(-c2c(C3=NCCN3)nnn2-c2ccccc2)cc1	> 100	> 100	> 100	> 100	> 100	> 100	> 100	> 100	–	–	–	–	–	–	–	–	–	–
COc1ccc(NC(=O)n2nc(/C=C\c3ccc(O)c(OC)c3)cc2/C=C\c2ccc(O)c(OC)c2)cc1	24.3	86.7	29.2	–	–	61.6	8.87	54.1	> 100	> 100	4 µM	5.28 µM	4.28 µM	3.38 µM	5.11 µM	5.51 µM	3.02 µM	18.8 µM
CC(=O)Nc1ccc(/C=C2/NC(=S)N(/C=C3\C(=O)Oc4ccccc4C3=O)C2=O)cc1	> 100	> 100	> 100	–	–	> 100	> 100	> 100	> 100	> 100	–	–	–	–	–	–	–	–
CCOC(=O)C1=C(Nc2ccc(Cl)c(Cl)c2)OC/C1=N\NC(=O)Cc1ccccc1	> 100	> 100	> 100	> 100	> 100	> 100	> 100	> 100	–	–	–	–	–	–	–	–	–	–
COC(=O)C(CC(=O)c1c[nH]c2ccccc12)c1c[nH]c2ccccc12 (stereo not drawn)	57.7	–	44.8	27.6	58.2	57.2	28	42.1	–	–	–	–	–	–	–	–	–	–
Clc1ccc2c(c1)C(N1CCNCC1)=Nc1ccccc1O2	3.27	12.8	4.93	–	–	3.15	2.77	12.9	5.12	8.74	1.49 µM	2.97 µM	1.99 µM	1.96 µM	1.54 µM	1.62 µM	1.22 µM	3.28 µM
CC1(C)C=[N+]([O-])C(C)(C)N1O	> 10	> 10	> 10	–	–	> 10	> 10	> 10	> 10	> 10	–	–	–	–	–	–	–	–
CC1(C)C(=O)C=CC2(C)C1CC(O)C1(C)C2CCC2(C)C(c3ccoc3)OC(=O)C3OC321 (stereo not drawn)	28.3	44.3	47.9	–	–	59.9	33.6	> 100	30.5	> 100	–	–	–	–	–	–	–	–
C[C@]12CC[C@H]3[C@@H](CC[C@]4(O)C[C@@H](O)CC[C@]34CO)[C@@]1(O)CC[C@@H]2C1=CC(=O)OC1	11.7	23.6	6.83	–	–	> 27	1.58	10.5	3.8	10.5	–	–	–	–	–	–	–	–
CCCCCCCCCCCCCC(=O)NCC(OCC)OCC	> 100	> 100	–	> 100	> 100	> 100	> 100	> 100	–	–	–	–	–	–	–	–	–	–
COc1cc2ncnc3c2cc1OCCCCCN(C)Cc1ccc(Br)cc1N3	> 100	> 100	> 100	–	–	> 100	> 100	> 100	> 100	> 100	37.4 µM and 5.07 µM	24.6 µM and > 10 µM	3.34 µM and 2.04 µM	7.39 µM and 3.92 µM	4.65 µM and 3.85 µM	6.31 µM and 5.72 µM	4.03 µM and 1.84 µM	12.9 µM and 1.87 µM
Cc1cccc(N=C2NC(=O)C(CC(=O)Nc3ccc(C)cc3C)S2)c1 (stereo not drawn)	> 100	> 100	> 100	> 100	> 100	> 100	> 100	> 100	–	–	–	–	–	–	–	–	–	–
Oc1c(CN2CCCC2)cc(CSCc2ccccc2)c2cccnc12	6.09	13.5	6.81	–	–	11.2	3.74	17.1	0.807	14	0.728 µM	1.72 µM	0.0989 µM	1.42 µM	1.55 µM	0.797 µM	0.772 µM	4.51 µM

Structure (SMILES)	TGI (786-0 renal) [µM]	TGI (SNB-19 CNS) [µM]	TGI (RPMI-8226 leukemia) [µM]	TGI (DMS 273 small cell lung) [µM]	TGI (SNB-78 CNS) [µM]	TGI (SW-620 colon) [µM]	TGI (RXF 393 renal) [µM]	TGI (OVCAR-5 ovarian) [µM]	TGI (NCI/ADR-RES ovarian) [µM]	TGI (PC-3 prostate) [µM]	GI50 (786-0 renal)	GI50 (SNB-19 CNS)	GI50 (NCI/ADR-RES ovarian)	GI50 (RPMI-8226 leukemia)	GI50 (PC-3 prostate)	GI50 (SW-620 colon)	GI50 (RXF 393 renal)	GI50 (OVCAR-5 ovarian)
O=C1C(Cl)=C(c2ccc([N+](=O)[O-])cc2)C(=O)c2c(O)cccc21	8.82	5.68	> 100	> 100	–	3.66	3.49	5.98	17.1	7.28	–	–	–	–	–	–	–	–
CC12CC=CCC1CCC1C2CCC2(C)C(c3ccc(=O)oc3)CCC12O (stereo not drawn)	0.209	1.19	0.756	–	–	0.366	0.0501	0.482	0.276	0.309	0.0387 µM	0.295 µM	0.0485 µM	0.107 µM	0.0747 µM	0.0539 µM	0.0174 µM	0.186 µM
COC(=O)C1Cc2c([nH]c3ccccc23)C(c2ccccc2O)N1Cc1ccccc1 (stereo not drawn)	31.2	> 31.6	> 100	> 31.6	> 46.4	> 46.4	61.7	> 46.4	–	–	–	–	–	–	–	–	–	–
NNS(=O)(=O)c1cc(C(=O)O)cc(C(=O)O)c1	> 100	> 100	> 100	–	–	> 100	> 100	> 100	> 100	> 100	–	–	–	–	–	–	–	–
CC1=C(/C=C/C(C)=C/C=C/C(C)=C/C=C/C=C(C)/C=C/C=C(C)/C=C/C2=C(C)C(=O)C(O)CC2(C)C)C(C)(C)CC(O)C1=O (stereo not drawn)	> 100	> 100	> 100	> 100	> 100	> 100	> 100	> 100	–	–	–	–	–	–	–	–	–	–
COc1cc(C2c3cc4c(cc3[C@@H](OCCN(C)C)C3COC(=O)[C@H]23)OCO4)cc(OC)c1O (stereo partly drawn)	0.663	> 22.3	–	0.632	> 100	3.59	1.97	4.26	–	–	–	–	–	–	–	–	–	–
N=c1ccc2nc3c(cc(N)c4ccccc43)oc-2c1	2.3	0.795	2.94	–	–	0.754	2.32	1.2	1.09	1.71	1.07 µM	0.242 µM	0.223 µM	0.427 µM	0.217 µM	0.252 µM	0.71 µM	0.348 µM
NC(=S)N/N=C1\CCCC1C(O)(C(F)(F)Cl)C(F)(F)Cl (stereo not drawn)	> 10	> 10	> 10	–	–	> 10	> 10	> 10	> 10	> 10	–	–	–	–	–	–	–	–
Cc1c(C(=O)CC(=O)C(=O)Nc2cc(Cl)ccc2Cl)[n+](=O)c2ccccc2n1[O-]	> 100	> 100	57.8	69.4	> 100	> 100	> 100	> 100	–	–	–	–	–	–	–	–	–	–
O=c1cc(-c2ccccn2)[nH]c2cc(F)ccc12	> 100	> 100	> 100	–	> 100	> 100	> 100	> 100	–	–	–	–	–	–	–	–	–	–
CC[C@H](Nc1nc(N)nc(C2CC2)c1C#N)c1nc2cccc(NCc3ccc(C(=O)NO)cc3)c2c(=O)n1-c1ccccc1	3.36	6.94	9.03	–	–	4.81	1.99	5.08	15.6	14.6	1.68 µM	2.18 µM	3.31 µM	2.52 µM	2.11 µM	1.73 µM	0.582 µM	1.92 µM
N#Cc1c(C[n+]2ccccc2)c2ccccc2oc1=O	> 100	> 100	> 100	> 100	> 100	> 100	–	> 100	–	–	–	–	–	–	–	–	–	–
S=P(N1CCCC1)(N1CC1)N1CC1	> 100	> 100	> 100	> 100	> 100	> 100	> 100	> 100	–	–	–	–	–	–	–	–	–	–
O=C(O)c1cccc(/C=C/c2ccccc2)c1	> 100	> 100	> 100	–	–	> 100	> 100	> 100	> 100	> 100	–	–	–	–	–	–	–	–
COc1ccccc1NC(=O)C1=C(C)NC(C)=C(C(=O)Nc2ccccc2OC)C1c1ccc(N(C)C)cc1	> 100	> 100	55.4	–	81.1	> 100	68.6	> 100	–	–	–	–	–	–	–	–	–	–
COC(=O)[C@H]1[C@H]2C[C@@H]3c4[nH]c5cc(OC)ccc5c4CCN3C[C@H]2C[C@@H](OC(=O)/C=C/c2cc(OC)c(OC)c(OC)c2)[C@@H]1OC	26.3	> 100	85.1	–	–	> 100	31.5	56.7	28.5	> 100	9.86 µM	6.46 µM	4.55 µM	4.05 µM	6.91 µM	8.47 µM	11 µM	19.3 µM
Nc1nc(N)nc(CC(=O)O)n1	> 100	> 100	> 100	–	–	> 100	> 100	> 100	> 100	> 100	–	–	–	–	–	–	–	–
COc1cc(C2c3cc4c(cc3[C@@H](N(C)C)[C@H]3COC(=O)C23)OCO4)cc(OC)c1O (stereo partly drawn)	> 100	–	> 100	> 100	–	> 100	> 100	> 100	–	–	–	–	–	–	–	–	–	–
Cc1cc(=O)oc2cc(OC(=O)N(CCCl)CCCl)ccc12	> 100	> 100	> 100	–	–	> 100	> 100	> 100	> 100	> 100	–	–	–	–	–	–	–	–
COC(=O)c1ccc(C(=O)OC)c2nc3cc(C)ccc3nc12	> 100	> 100	> 100	> 100	> 100	> 100	–	> 100	–	–	–	–	–	–	–	–	–	–
Clc1ccc2ns[s+]c2c1	> 100	> 100	> 100	> 100	> 100	> 100	> 100	> 100	–	> 100	–	–	–	–	–	–	–	–
COc1cc(/C=C/c2ccc(OC)c(OC)c2OC)cc(OC)c1OC	51.6	97.9	37.1	41	46.4	> 92.6	46.3	74.4	–	–	–	–	–	–	–	–	–	–

Source: PubChem BioAssay (NCI)
